Test results taken from patent US10800791B2, “Triazole ACC inhibitors and uses thereof” (Gilead Apollo, LLC, priority 2015, dated 2020).
Values after ≈ are worked out from the molar mass of the structure shown. Where two headings read alike, the source gives them in different places.

Columns and labels:
C. krusei = test: Antifungal Activity Assay (broth microtiter MIC), C. krusei; format: cell-based, Candida krusei; conditions: Pichia kudriavzevii, ATCC6258, 48 h, ATCC 6258, 3 replicates, MIC recorded at 48 h, read-out: MIC, C. krusei ATCC 6258
Outline: (§1)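 Broth microdilution per CLSI M27-A3 in RPMI 1640+MOPS, inoculum 2.5×10^3 CFU/mL final from overnight Sabouraud dextrose agar cultures at 35° C. Compounds diluted from DMSO stock to 128 μg/mL in water. MIC read visually versus growth control at 48 h.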

Botrtyis cinerea (Bc) = test: Growth inhibition assay of fungal pathogens, Bc; format: cell-based; conditions: 48 h, Botrtyis cinerea; growth inhibition at 48 hours vs 2% DMSO control; read-out: Concentration at 90% Inhibition Bc
Description: (§2) Compounds of the present invention were evaluated in a growth inhibition assay to determine the ability to control the growth of fungal pathogens, such as Botrtyis cinerea (Bc), Collectotrichum graminicola (Cg), Diplodia maydis (Dm), Fusarium moniliforme (Fm), Fusarium virguliforme (Fv), Phytophthora capsici (Pc), Rhizoctonia solani (Rs), and Septoria tritici (St).
(§3) Compounds to be tested were dissolved in DMSO at 2.5 mg/ml to produce compound stock solutions (“stocks”). Stocks were diluted with DMSO by a five-fold dilution in a 96-well stock plate, and two sets of final concentrations of 50, 10, and 2 ppm or 2, 0.4, and 0.08 ppm were obtained in vitro. A set of positive controls was also prepared, with various concentrations of Soraphen (2, 0.4, and 0.08 ppm), Metalaxyl (1.1, 0.22, and 0.04 ppm), and Metconazole (2, 0.4, and 0.08 ppm or 0.2, 0.04, and 0.008 ppm) after the five-fold dilutions. Negative controls on each plate included 2% DMSO, water, and a blank (media+2% DMSO).
(§4) Fungal spores were isolated from previously sub-cultured plates of Botrtyis cinerea (Bc), Collectotrichum graminicola (Cg), Diplodia maydis (Dm), Fusarium moniliforme (Fm), Fusarium virguliforme (Fv), Phytophthora capsici (Pc), and Septoria tritici (St). The isolated spores were diluted to individual concentrations with a 17% V8 liquid media. For Rhizoctonia solani (Rs) and Pythium irregulare, 1.5 mm mycelial plugs were used in place of spores and/4 Potato Dextrose Broth (PDB) was used for dilution. The spore concentrations and plug sizes were based on growth curves generated at 48 hours for each pathogen.
(§5) In a second 96-well plate, the spores or mycelial plugs, media, diluted compound solutions, and controls were combined. Once the compound was added, a true final concentration of compound in each well was measured by an OD600 reading, which adjusted for any compound precipitation that might have occurred in the well. Plate readings were repeated at both 24 and 48 hours. The blank negative control was used as a background subtraction. Additional visual ratings were performed at both 24 and 48 hours for checking on precipitation and confirming efficacy. Visual and OD600 ratings of the compounds at 48 hours were compared to the 2% DMSO negative control, and the percent of pathogen growth inhibition was determined based on those values.

C. parapsilosis = test: Antifungal Activity Assay (broth microtiter MIC), C. parapsilosis; format: cell-based, Candida parapsilosis; conditions: Lodderomyces parapsilosis, ATCC22019, 48 h, ATCC 22019, 3 replicates, MIC recorded at 48 h, read-out: MIC, C. parapsilosis ATCC 22019
Outline: as §1

[1] = tested on: Phytophthora capsici (Pc); test: Growth inhibition assay of fungal pathogens, Pc; format: cell-based; conditions: 48 h, growth inhibition at 48 hours vs 2% DMSO control, read-out: Concentration at 90% Inhibition Pc
Description: as §2, §3, §4, §5

[2] = tested on: Collectotrichum graminicola (Cg); test: Growth inhibition assay of fungal pathogens, Cg; format: cell-based; conditions: 48 h, Collectotrichum graminicola; growth inhibition at 48 hours vs 2% DMSO control; read-out: Concentration at 90% Inhibition Cg
Description: as §2, §3, §4, §5

[3] = tested on: Fusarium virguliforme (Fv); test: Growth inhibition assay of fungal pathogens, Fv; format: cell-based; conditions: 48 h, growth inhibition at 48 hours vs 2% DMSO control, read-out: Concentration at 90% Inhibition Fv
Description: as §2, §3, §4, §5

[4] = tested on: Fusarium moniliforme (Fm); test: Growth inhibition assay of fungal pathogens, Fm; format: cell-based; conditions: Fusarium verticillioides, 48 h, Fusarium moniliforme; growth inhibition at 48 hours vs 2% DMSO control; read-out: Concentration at 90% Inhibition Fm
Description: as §2, §3, §4, §5

human (hACC2) = human (hACC2) (Homo sapiens, UniProt O00763); test: In vitro ACC inhibition assay (ADP-Glo), hACC2; format: biochemical; conditions: 5 nM ACC2, 20 μM ATP, 20 μM acetyl-CoA
Description: The detailed procedure is as follows. […] 10 μL ADP glo reagent was added. […] 20 μL kinase detection reagent was added.

Rhizoctonia solani (Rs) = test: Growth inhibition assay of fungal pathogens, Rs; format: cell-based; conditions: 48 h
Description: as §2, §3, §4, §5

Diplodia maydis (Dm) = test: Growth inhibition assay of fungal pathogens, Dm; format: cell-based; conditions: Stenocarpella maydis, 48 h, Diplodia maydis; growth inhibition at 48 hours vs 2% DMSO control; read-out: Concentration at 90% Inhibition Dm
Description: as §2, §3, §4, §5

Septoria tritici (St) = test: Growth inhibition assay of fungal pathogens, St; format: cell-based; conditions: Zymoseptoria tritici, 48 h, Septoria tritici; growth inhibition at 48 hours vs 2% DMSO control; read-out: Concentration at 90% Inhibition St
Description: as §2, §3, §4, §5

C. albicans = test: Antifungal Activity Assay (broth microtiter MIC), C. albicans; format: cell-based, Candida albicans; conditions: Candida albicans, ATCC90028, 48 h, ATCC 90028, 3 replicates, MIC recorded at 48 h, read-out: MIC, C. albicans ATCC 90028
Outline: as §1

[5] = mycelial plugs, growth inhibition at 48 hours vs 2% DMSO control, read-out: Concentration at 90% Inhibition Rs
[6] = mycelial plugs, growth inhibition vs 2% DMSO control at 48 hours, read-out: Concentration at 90% Inhibition Rs
[7] = read-out: Concentration at 90% Inhibition Rs, Rhizoctonia solani, mycelial plugs, growth inhibition at 48 hours vs 2% DMSO control
[8] = read-out: Concentration at 90% Inhibition Rs, Rhizoctonia solani, mycelial plugs, growth inhibition vs 2% DMSO control at 48 hours

Chain of human (hACC2) (O00763 whole entry): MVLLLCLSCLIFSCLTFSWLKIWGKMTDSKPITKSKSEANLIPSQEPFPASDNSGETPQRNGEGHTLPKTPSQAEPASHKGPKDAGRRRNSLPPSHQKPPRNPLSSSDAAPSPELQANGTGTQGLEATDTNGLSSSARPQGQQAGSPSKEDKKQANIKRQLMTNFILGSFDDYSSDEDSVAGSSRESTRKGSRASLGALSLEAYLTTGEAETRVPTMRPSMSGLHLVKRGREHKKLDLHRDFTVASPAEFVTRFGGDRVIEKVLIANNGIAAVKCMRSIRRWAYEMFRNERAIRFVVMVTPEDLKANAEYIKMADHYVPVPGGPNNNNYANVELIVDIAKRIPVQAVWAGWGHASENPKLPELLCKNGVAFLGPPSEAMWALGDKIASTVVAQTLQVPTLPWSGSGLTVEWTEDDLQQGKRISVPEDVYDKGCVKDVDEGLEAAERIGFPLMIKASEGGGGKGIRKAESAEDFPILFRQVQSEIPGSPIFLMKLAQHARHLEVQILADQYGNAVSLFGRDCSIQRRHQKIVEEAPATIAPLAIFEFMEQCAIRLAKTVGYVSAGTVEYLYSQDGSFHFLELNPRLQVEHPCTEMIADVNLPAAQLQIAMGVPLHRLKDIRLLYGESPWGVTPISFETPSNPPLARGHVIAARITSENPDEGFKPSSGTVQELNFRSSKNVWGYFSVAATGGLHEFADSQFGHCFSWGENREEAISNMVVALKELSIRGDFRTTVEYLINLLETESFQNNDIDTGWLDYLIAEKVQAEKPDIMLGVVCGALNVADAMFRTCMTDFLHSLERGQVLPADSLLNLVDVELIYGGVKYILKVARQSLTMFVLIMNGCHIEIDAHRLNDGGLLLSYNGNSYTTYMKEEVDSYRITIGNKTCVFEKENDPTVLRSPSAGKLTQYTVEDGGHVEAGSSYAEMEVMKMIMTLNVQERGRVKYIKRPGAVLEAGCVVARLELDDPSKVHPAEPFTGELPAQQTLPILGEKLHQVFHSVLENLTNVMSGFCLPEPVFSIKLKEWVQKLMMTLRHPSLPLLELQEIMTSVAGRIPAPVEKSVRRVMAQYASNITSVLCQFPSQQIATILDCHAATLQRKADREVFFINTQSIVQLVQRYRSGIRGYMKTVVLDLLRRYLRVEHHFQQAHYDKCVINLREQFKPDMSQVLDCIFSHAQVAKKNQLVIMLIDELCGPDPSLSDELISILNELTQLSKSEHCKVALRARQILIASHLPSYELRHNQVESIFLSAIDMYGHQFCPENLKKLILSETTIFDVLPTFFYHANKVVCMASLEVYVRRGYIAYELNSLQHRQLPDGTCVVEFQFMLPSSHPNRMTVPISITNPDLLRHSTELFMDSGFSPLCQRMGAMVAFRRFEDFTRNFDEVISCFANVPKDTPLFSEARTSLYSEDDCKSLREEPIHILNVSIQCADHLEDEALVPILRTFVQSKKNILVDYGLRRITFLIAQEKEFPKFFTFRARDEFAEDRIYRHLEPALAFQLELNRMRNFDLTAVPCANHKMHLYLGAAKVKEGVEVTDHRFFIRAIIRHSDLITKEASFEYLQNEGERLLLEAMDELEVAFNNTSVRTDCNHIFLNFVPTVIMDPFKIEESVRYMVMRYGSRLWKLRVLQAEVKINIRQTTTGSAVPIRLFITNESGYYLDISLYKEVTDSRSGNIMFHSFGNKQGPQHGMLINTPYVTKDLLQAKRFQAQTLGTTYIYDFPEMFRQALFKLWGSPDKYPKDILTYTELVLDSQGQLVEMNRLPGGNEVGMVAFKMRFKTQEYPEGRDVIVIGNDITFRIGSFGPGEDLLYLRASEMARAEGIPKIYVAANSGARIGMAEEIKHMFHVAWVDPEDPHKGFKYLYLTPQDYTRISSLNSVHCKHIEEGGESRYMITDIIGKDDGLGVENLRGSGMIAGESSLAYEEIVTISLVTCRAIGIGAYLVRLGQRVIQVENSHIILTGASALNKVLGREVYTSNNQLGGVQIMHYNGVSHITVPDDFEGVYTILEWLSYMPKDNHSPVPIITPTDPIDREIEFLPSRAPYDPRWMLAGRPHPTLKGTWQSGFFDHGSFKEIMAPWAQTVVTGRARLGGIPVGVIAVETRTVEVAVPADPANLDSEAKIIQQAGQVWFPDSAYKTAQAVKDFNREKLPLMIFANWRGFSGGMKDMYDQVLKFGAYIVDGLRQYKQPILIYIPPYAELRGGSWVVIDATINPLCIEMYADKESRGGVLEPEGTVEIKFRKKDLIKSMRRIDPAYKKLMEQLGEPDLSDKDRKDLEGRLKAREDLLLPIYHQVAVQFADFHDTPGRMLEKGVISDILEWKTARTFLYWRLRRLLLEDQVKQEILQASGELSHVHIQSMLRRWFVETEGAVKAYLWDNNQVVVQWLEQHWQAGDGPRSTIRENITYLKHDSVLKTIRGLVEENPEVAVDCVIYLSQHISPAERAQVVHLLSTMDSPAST

| SMILES | MIC (C. krusei; Table 3a) [µg/mL] | MIC (C. krusei; Table 3b (additional results)) [µg/mL] | IC90 (Botrtyis cinerea (Bc)) [µg/mL] | MIC (C. parapsilosis; Table 3a) [µg/mL] | MIC (C. parapsilosis; Table 3b (additional results)) [µg/mL] | IC90 [1] [µg/mL] | IC90 [2] [µg/mL] | IC90 [3] [µg/mL] | IC90 [4] [µg/mL] | IC50 (human (hACC2); Table 2a) [nM] | IC50 (human (hACC2); Table 2b, additional results) [nM] | IC90 (Rhizoctonia solani (Rs); [5]) [µg/mL] | IC90 (Diplodia maydis (Dm)) [µg/mL] | IC90 (Septoria tritici (St)) [µg/mL] | MIC (C. albicans; Table 3a) [µg/mL] | MIC (C. albicans; Table 3b (additional results)) [µg/mL] | IC90 (Rhizoctonia solani (Rs); [6]) [µg/mL] | IC90 (Rhizoctonia solani (Rs); [7]) [µg/mL] | IC90 (Rhizoctonia solani (Rs); [8]) [µg/mL] |
| --- | --- | --- | --- | --- | --- | --- | --- | --- | --- | --- | --- | --- | --- | --- | --- | --- | --- | --- | --- |
| COc1ccc(F)cc1[C@H](Cn1c(=O)n(C(C)(C)C(=O)O)c(=O)c2c(C)c(-n3nccn3)sc21)OC1CCC(=O)CC1 [Compound I-30, (R)-2-(1-(2-(5-fluoro-2-methoxyphenyl)-2-((4-oxocyclo-hexyl)oxy)ethyl)-5-methyl-2,4-dioxo-6-(2H-1,2,3-triazol-2-yl)-1,4-dihydrothieno[2,3-d]pyrimidin-3(2H)-yl)-2-methylpropanoic acid] | 2.1 to 4 (≈ 3.5 to 6.67 µM) | 1.01 to 2 (≈ 1.68 to 3.34 µM) | 10 (≈ 16.7 µM) | 2.1 to 4 (≈ 3.5 to 6.67 µM) | 2.01 to 4 (≈ 3.35 to 6.67 µM) | > 50 | > 50 | > 50 | 2 (≈ 3.34 µM) | 1 to 5 | 1 to 5 | 10 (≈ 16.7 µM) | > 50 | > 50 | 2.1 to 4 (≈ 3.5 to 6.67 µM) | 1.01 to 2 (≈ 1.68 to 3.34 µM) |  |  |  |
| COc1ccc(F)cc1[C@H](Cn1c(=O)n([C@@H](C)C(=O)N2CCCC2)c(=O)c2c(C)c(-n3nccn3)sc21)OC(C)C [Compound I-39, 1-((R)-2-(5-fluoro-2-methoxyphenyl)-2-isopropoxyethyl)-5-methyl-3-((S)-1-oxo-1-(pyrrolidin-1-yl)propan-2-yl)-6-(2H-1,2,3-triazol-2-yl)thieno[2,3-d]pyrimidine-2,4(1H,3H)-dione] |  |  |  |  |  |  |  |  |  | 5 to 10 | 1 to 5 | 0.4 (≈ 0.684 µM) |  |  |  |  | 0.4 (≈ 0.684 µM) |  |  |
| COc1ccc(F)cc1[C@H](Cn1c(=O)n(C(C)C(=O)N2CCCC2)c(=O)c2c(C)c(-n3nccn3)sc21)OC(C)C (stereo partly drawn) [Compound I-40, 1-((R)-2-(5-fluoro-2-methoxyphenyl)-2-isopropoxyethyl)-5-methyl-3-(1-oxo-1-(pyrrolidin-1-yl)propan-2-yl)-6-(2H-1,2,3-triazol-2-yl)thieno[2,3-d]pyrimidine-2,4(1H,3H)-dione] |  |  |  |  |  |  |  |  |  | 5 to 10 | 5 to 10 | 0.4 (≈ 0.684 µM) |  |  |  |  | 0.08 (≈ 0.137 µM) |  |  |
| COc1ccc(F)cc1[C@H](Cn1c(=O)n(C(C)(C)C(=O)NC(C)C)c(=O)c2c(C)c(-n3nccn3)sc21)OCC(C)(C)O [Compound I-57, (R)-2-(1-(2-(5-fluoro-2-methoxyphenyl)-2-(2-hydroxy-2-methylpropoxy)ethyl)-5-methyl-2,4-dioxo-6-(2H-1,2,3-triazol-2-yl)-1,4-dihydro-thieno[2,3-d]pyrimidin-3(2H)-yl)-N-isopropyl-2-methylpropanamide] |  |  |  |  |  |  |  |  |  | 10 to 40 | 10 to 40 |  |  |  |  |  |  | 0.4 (≈ 0.649 µM) | 0.4 (≈ 0.649 µM) |
| COc1ccc(F)cc1[C@H](Cn1c(=O)n(C(C)(C)C(=O)N2CCCC2)c(=O)c2c(C)c(-n3nccn3)sc21)OCC(C)(C)O [Compound I-58, (R)-1-(2-(5-fluoro-2-methoxyphenyl)-2-(2-hydroxy-2-methylpropoxy)ethyl)-5-methyl-3-(2-methyl-1-oxo-1-(pyrrolidin-1-yl)propan-2-yl)-6-(2H-1,2,3-triazol-2-yl)thieno[2,3-d]pyrimidine-2,4(1H,3H)-dione] |  |  |  |  |  |  |  |  |  | 10 to 40 | 10 to 40 | 0.4 (≈ 0.636 µM) |  |  |  |  | 0.4 (≈ 0.636 µM) |  |  |
| COCCO[C@@H](Cn1c(=O)n(C(C)(C)C(=O)NC(C)C)c(=O)c2c(C)c(-n3nccn3)sc21)c1cc(F)ccc1OC [Compound I-59, (R)-2-(1-(2-(5-fluoro-2-methoxyphenyl)-2-(2-methoxy-ethoxy)ethyl)-5-methyl-2,4-dioxo-6-(2H-1,2,3-triazol-2-yl)-1,4-dihydro-thieno[2,3-d]pyrimidin-3(2H)-yl)-N-isopropyl-2-methylpropanamide] |  |  |  |  |  |  |  |  |  | 5 to 10 | 5 to 10 |  |  |  |  |  |  | 0.4 (≈ 0.664 µM) | 0.4 (≈ 0.664 µM) |
| COCCO[C@@H](Cn1c(=O)n(C(C)(C)C(=O)N2CCCC2)c(=O)c2c(C)c(-n3nccn3)sc21)c1cc(F)ccc1OC [Compound I-60, (R)-1-(2-(5-fluoro-2-methoxyphenyl)-2-(2-methoxy-ethoxy)ethyl)-5-methyl-3-(2-methyl-1-oxo-1-(pyrrolidin-1-yl)propan-2-yl)-6-(2H-1,2,3-triazol-2-yl)thieno[2,3-d]pyrimidine-2,4(1H,3H)-dione] |  |  |  |  |  |  |  |  |  | 10 to 40 | 10 to 40 | > 50 |  |  |  |  | > 50 |  |  |
| COCCOc1ccc(F)cc1[C@H](Cn1c(=O)n(C(C)(C)C(=O)NC(C)C)c(=O)c2c(C)c(-n3nccn3)sc21)OC1CCOCC1 [Compound I-61, (R)-2-(1-(2-(5-fluoro-2-(2-methoxyethoxy)phenyl)-2-((tetrahydro-2H-pyran-4-yl)oxy)ethyl)-5-methyl-2,4-dioxo-6-(2H-1,2,3-triazol-2-yl)-1,4-dihydrothieno[2,3-d]pyrimidin-3(2H)-yl)-N-isopropyl-2-methylpropanamide] |  |  |  |  |  |  |  |  |  | 5 to 10 | 5 to 10 | 0.08 (≈ 0.119 µM) |  |  |  |  | 0.08 (≈ 0.119 µM) |  |  |
| COc1ccccc1[C@@H](O)Cn1c(=O)n(C(C)(C)C(=O)N2CCCC2)c(=O)c2c(C)c(-n3nccn3)sc21 [Compound I-189] |  | 1.01 to 2 (≈ 1.88 to 3.71 µM) | 10 (≈ 18.6 µM) |  | 1.01 to 2 (≈ 1.88 to 3.71 µM) | > 50 | > 50 | 10 (≈ 18.6 µM) | 10 (≈ 18.6 µM) |  | 10 to 40 | 0.08 (≈ 0.149 µM) | > 50 | > 50 |  | 1.01 to 2 (≈ 1.88 to 3.71 µM) |  |  |  |
| COc1ccc(F)cc1[C@@H](O)Cn1c(=O)n([C@@H](C)C(=O)N2CC=CC2)c(=O)c2c(C)c(-n3nccn3)sc21 [Compound I-193] |  | 1.01 to 2 (≈ 1.87 to 3.7 µM) | 10 (≈ 18.5 µM) |  | 1.01 to 2 (≈ 1.87 to 3.7 µM) | > 50 | 10 (≈ 18.5 µM) | 2 (≈ 3.7 µM) | 2 (≈ 3.7 µM) |  | 5 to 10 | 2 (≈ 3.7 µM) | > 50 | > 50 |  | 1.01 to 2 (≈ 1.87 to 3.7 µM) |  |  |  |
